The values that follow are results of earlier work, collected in patent publication US20170020130A1, “METHOD OF PREPARATION AND COMPOSITION OF ANT[…]” (Eltron Research & Development, LLC, priority 2008, published 2017).

For the data set the following is noted: alkaline pH (7.5≦pH≦10.5), near the pKa.

With `CC(=O)OO` [peracetic acid], the “stability (decomposition with evolution of oxygen)” value is reported as “least stable”.
